From patent US9055743B2, “Alpha, beta-unsaturated imines” (BAYER INTELLECTUAL PROPERTY GMBH, priority 2010, dated 2015)

Legend:
Assay type in all cases: in vivo
[1] = system: Aedes aegypti; assay: Aedes test (AEDSAE surface treatment); conditions: for knock-down activity: 100 mg/m^2, two hours after contact, exposition 30 minutes; for mortality at 100 mg/m2: Aedes aegypti, read-out: activity (mortality in %)
Description: Aedes Test (AEDSAE Surface Treatment)
(§1) To produce a suitable preparation of active compound, the active compound is dissolved in acetone (2 mg/ml). The active compound preparation is pipetted onto a glazed tile and, after drying, adult mosquitoes of the species Aedes aegypti are placed onto the treated tile. The exposition time is 30 minutes.
(§2) Two hours after contact to the treated surface, the knock-down proportion of the test animals in % is determined.
24 hours after contact to the treated surface, the mortality in % is determined Here, 100% means that all mosquitoes have been killed; 0% means that none of the mosquitoes has been killed.

[2] = system: greenhouse red spider mite (Tetranychus urticae); assay: Tetranychus test; OP-resistant (TETRUR spray treatment); conditions: 500 g/ha, spray, after 6 days; for pest or weed control at 500 g/ha: Tetranychus urticae, 144 h, read-out: activity (spider mites killed)
Description: Tetranychus Test; OP-Resistant (TETRUR Spray Treatment) Solvents: 78.0 parts by weight of acetone • • 1.5 parts by weight of dimethylformamide Emulsifier: 0.5 part by weight of alkylaryl polyglycol ether
(§3) To produce a suitable preparation of active compound, 1 part by weight of active compound is mixed with the stated amounts of solvents and emulsifier, and the concentrate is diluted with emulsifier-containing water to the desired concentration.
Discs of bean leaves (Phaseolus vulgaris) infested by all stages of the greenhouse red spider mite (Tetranychus urticae) are sprayed with an active compound preparation of the desired concentration.
After 6 days, the activity in % is determined. 100% means that all spider mites have been killed; 0% means that none of the spider mites have been killed.

[3] = system: green peach aphid (Myzus persicae); assay: Myzus test (MYZUPE spray treatment); conditions: 500 g/ha, spray, after 6 days
Description: Myzus Test (MYZUPE Spray Treatment) Solvents: 78 parts by weight of acetone • • 1.5 parts by weight of dimethylformamide Emulsifier: 0.5 part by weight of alkylaryl polyglycol ether
as §3
Discs of Chinese cabbage leaves (Brassica pekinensis) which are infested by all stages of the green peach aphid (Myzus persicae) are sprayed with an active compound preparation of the desired concentration.
After 6 days, the activity in % is determined. 100% means that all aphids have been killed; 0% means that none of the aphids have been killed.

[4] = system: Anopheles gambiae (homocygus kdr); assay: Anopheles test (ANPHGB surface treatment); conditions: for knock-down activity: 100 mg/m^2, two hours after contact, exposition 30 minutes
Description: Anopheles Test (ANPHGB Surface Treatment) Solvent: Acetone
as §1, with “Anopheles gambiae (homocygus kdr)” for “Aedes aegypti”
as §2
24 hours after contact to the treated surface, the mortality in % is determined. Here, 100% means that all mosquitoes have been killed; 0% means that none of the mosquitoes has been killed.

[5] = system: caterpillars of the army worm (Spodoptera frugiperda); assay: Spodoptera frugiperda test (SPODFR spray treatment); conditions: 500 g/ha, spray, after 7 days; for pest or weed control at 500 g/ha: Spodoptera frugiperda, 168 h, read-out: activity (caterpillars killed)
Description: Spodoptera frugiperda Test (SPODFR Spray Treatment) Solvents: 78.0 parts by weight of acetone • • 1.5 parts by weight of dimethylformamide Emulsifier: 0.5 part by weight of alkylaryl polyglycol ether
as §3
Discs of maize leaves (Zea mays) are sprayed with an active compound preparation of the desired concentration and, after drying, populated with caterpillars of the army worm (Spodoptera frugiperda) besetzt.
After 7 days, the activity in % is determined. 100% means that all caterpillars have been killed; 0% means that none of the caterpillars have been killed.

[6] = system: larvae of the mustard beetle (Phaedon cochleariae); assay: Phaedon test (PHAECO spray treatment); conditions: 500 g/ha, spray, after 7 days
Description: Phaedon Test ([…] Spray Treatment) Solvents: 78.0 parts by weight of acetone • • 1.5 parts by weight of dimethylformamide Emulsifier: 0.5 part by weight of alkylaryl polyglycol ether To produce a suitable preparation of active compound, 1 part by weight of active compound is mixed with the stated amounts of solvents and emulsifiers, and the concentrate is diluted with emulsifier-containing water to the desired concentration. Discs of Chinese cabbage leaves (Brassica pekinensis) are sprayed with an active compound preparation of the desired concentration and, after drying, populated with larvae of the mustard beetle (Phaedon cochleariae).

[7] = system: cat fleas (Ctenocephalides felis, fully sensitive laboratory strain); assay: Contact test against fleas in-vitro (CTECFE contact); conditions: 500 g/ha, after 48 h
Description: Contact Test Against Fleas In-Vitro (CTECFE Contact)
An amount of 0.9 mg of active compound is weighed out, and 1 ml of acetone is added.
Of this acetone solution, either […] are transferred directly into roll-necked test tubes or an aliquot is diluted with 4 parts of acetone 1:5. For its part, 250 μl of this dilution are pipetted into roll-necked test tubes, or the dilution is diluted further, etc., until the desired number of dilution steps is reached.
The roll-necked test tubes containing the solution of the active compound in acetone are immediately coated in a fume cupboard by 2 h of swing rotation at 30 rpm. After evaporation of the solvent, the active compound contained in the acetone gives, at the highest concentration tested, an active compound content of 500 g/ha (or 500 μg/dm^2) on the surface of the test tube.
10-20 Adult cat fleas (Ctenocephalides felis, fully sensitive laboratory strain) anesthetized with CO2 are transferred into the test tubes prepared in this manner, and the test tubes are closed with a plastic roll-necked lid provided with fine holes.
The test tubes are stored vertically at room temperature and humidity for 24 or 48 h. After 24 and 48 h, the activity of the active compound applied is determined by comparison with an acetone-treated control. Here, an observed normal activity for all fleas corresponds to 0% activity, a strongly restricted or uncoordinated (knock-down) movement or death of all fleas corresponds to 100% activity.

SMILES: CCOC1=CC(=CSc2ccc(F)cc2)C(=Nc2ccc(C)cc2)CC1 (mixture of isomers) [Example 1-96]
- knock-down activity [1]: 80%
- activity (spider mites killed) [2]: 90%
- activity (aphids killed) [3]: 90%

SMILES: Cc1ccc(N=C2C(=CSc3ccccc3F)C3CCC2C3)cc1 (centres unmarked) [Example 1-103]
- knock-down activity [4]: 100%
- knock-down activity [1]: 100%

SMILES: Cc1ccc(N=C2C(=CSc3cccc(F)c3)C3CCC2C3)cc1 (centres unmarked) [Example 1-102]
- knock-down activity [4]: 100%
- knock-down activity [1]: 100%

SMILES: Cc1ccc(N=C2C(=CSc3ccc(F)cc3)CCc3ccccc32)cc1C [Example 1-41]
- knock-down activity [4]: 100%
- knock-down activity [1]: 95%
- activity (caterpillars killed) [5]: 100%
- activity (spider mites killed) [2]: 80%
- activity (aphids killed) [3]: 90%
- activity (beetle larvae killed) [6]: 100%

SMILES: Cc1ccc(N=C2C(=CSc3ccc(F)cc3)COc3ccc(F)cc32)cc1 [Example 1-23]
- activity (caterpillars killed) [5]: 100%
- activity against cat fleas [7]: 100%
- activity (beetle larvae killed) [6]: 100%

SMILES: Cc1ccc(N=C2C(=CSc3ccc(F)cc3)COc3cccc(C)c32)cc1 [Example 1-86]
- knock-down activity [4]: 100%
- knock-down activity [1]: 95%

SMILES: Cc1ccc(N=C2C(=CSc3ccc(F)cc3)CC(C)c3ccccc32)cc1 (centres unmarked) [Example 1-14]
- knock-down activity [4]: 95%
- activity (caterpillars killed) [5]: 100%
- activity (spider mites killed) [2]: 100%
- activity against cat fleas [7]: 100%
- activity (aphids killed) [3]: 100%
- activity (beetle larvae killed) [6]: 100%

SMILES: Cc1ccc(N=C2C(=CSc3ccc(F)cc3)CCc3nc(Cl)ccc32)cc1 [Example 1-54]
- activity (caterpillars killed) [5]: 100%
- activity (spider mites killed) [2]: 80%
- activity against cat fleas [7]: 100%
- activity (aphids killed) [3]: 80%
- activity (beetle larvae killed) [6]: 100%

SMILES: Cc1ccc(N=C2C(=CSc3ccc(F)cc3)CCc3ccc(F)cc32)cc1 [Example 1-15]
- activity (caterpillars killed) [5]: 100%
- activity (spider mites killed) [2]: 100%
- activity against cat fleas [7]: 100%
- activity (aphids killed) [3]: 100%
- activity (beetle larvae killed) [6]: 100%

SMILES: Cc1cccc(N=C2C(=CSc3ccc(F)cc3)CCc3ccccc32)c1 [Example 1-88]
- knock-down activity [4]: 100%
- knock-down activity [1]: 85%
- activity (caterpillars killed) [5]: 100%
- activity (spider mites killed) [2]: 100%
- activity (aphids killed) [3]: 100%
- activity (beetle larvae killed) [6]: 100%

SMILES: Cc1ccc(N=C2c3ccccc3CCC2C(Sc2ccccc2)Sc2ccccc2)cc1 (centres unmarked) [Example 2-1]
- knock-down activity [4]: 100%
- mortality at 100 mg/m2 ([4]; Anopheles gambiae, read-out: activity (mortality in %)): 100%
- knock-down activity [1]: 100%
- mortality at 100 mg/m2 [1]: 100%
- pest or weed control at 500 g/ha [5]: 100%
- pest or weed control at 500 g/ha [2]: 80%
- pest or weed control at 500 g/ha ([3]; Myzus persicae, 144 h, read-out: activity (aphids killed)): 90%
- pest or weed control at 500 g/ha ([6]; Phaedon cochleariae, 168 h, read-out: activity (beetle larvae killed)): 100%

SMILES: Cc1ccc(N=C2C(=CSc3ccc(F)cc3)C(C)c3cc(C)ccc32)cc1 (mixture of isomers) [Example 1-51]
- knock-down activity [4]: 100%
- knock-down activity [1]: 85%
- activity (caterpillars killed) [5]: 100%
- activity (aphids killed) [3]: 100%
- activity (beetle larvae killed) [6]: 100%

SMILES: Cc1ccc(N=C2C(=CSc3ccc(F)cc3)CCc3ccccc32)c(C)c1 [Example 1-43]
- knock-down activity [4]: 100%
- knock-down activity [1]: 100%
- activity (caterpillars killed) [5]: 100%
- activity (spider mites killed) [2]: 80%
- activity (aphids killed) [3]: 90%
- activity (beetle larvae killed) [6]: 100%

SMILES: C(Sc1ccccc1)=C1CCc2ccccc2C1=Nc1ccccc1 [Example 1-8]
- knock-down activity [4]: 85%
- activity (caterpillars killed) [5]: 100%
- activity (spider mites killed) [2]: 100%
- activity against cat fleas [7]: 100%
- activity (beetle larvae killed) [6]: 100%

SMILES: Cc1ccc(N=C2C=CC(C)(C)CC2=CSc2ccc(F)cc2)cc1 (mixture of isomers) [Example 1-44]
- knock-down activity [4]: 100%
- knock-down activity [1]: 90%
- activity (caterpillars killed) [5]: 83%
- activity (spider mites killed) [2]: 90%

SMILES: Cc1ccc(N=C2c3ccccc3OCC2C(Sc2ccc(F)cc2)Sc2ccc(F)cc2)cc1 (centres unmarked) [Example 2-11]
- activity (caterpillars killed) [5]: 100%
- activity (spider mites killed) [2]: 100%
- activity against cat fleas [7]: 100%
- activity (aphids killed) [3]: 100%
- activity (beetle larvae killed) [6]: 100%

SMILES: COc1ccc2c(c1)C(=Nc1ccc(C)cc1)C(=CSc1ccc(F)cc1)CC2 [Example 1-32]
- activity (caterpillars killed) [5]: 100%
- activity (spider mites killed) [2]: 100%
- activity against cat fleas [7]: 100%

SMILES: Cc1ccc(N=C2C(=CSc3ccc(F)cc3)CCc3cc(Cl)ccc32)cc1 [Example 1-47]
- knock-down activity [4]: 85%
- activity (caterpillars killed) [5]: 100%
- activity (spider mites killed) [2]: 100%
- activity against cat fleas [7]: 100%
- activity (aphids killed) [3]: 100%
- activity (beetle larvae killed) [6]: 100%

SMILES: c1ccc(N=C2c3ccccc3CCC2C(Sc2ccccc2)Sc2ccccc2)cc1 (centres unmarked) [Example 2-2]
- knock-down activity [4]: 100%
- knock-down activity [1]: 100%

SMILES: Cc1ccc(N=C2C(=CSc3ccc(F)cc3)CSc3cc(C)ccc32)cc1 [Example 1-76]
- knock-down activity [4]: 100%
- knock-down activity [1]: 80%

SMILES: COc1ccc2c(c1)C(C)C(=CSc1ccc(F)cc1)C2=Nc1ccc(C)cc1 (mixture of isomers) [Example 1-65]
- knock-down activity [4]: 100%
- knock-down activity [1]: 85%
- activity (caterpillars killed) [5]: 100%
- activity (spider mites killed) [2]: 100%
- activity (aphids killed) [3]: 100%
- activity (beetle larvae killed) [6]: 100%

SMILES: CCOC1=CC(=Nc2ccc(C)cc2)C(=CSc2ccc(F)cc2F)CC1 [Example 1-98, N-(6-{[(2,4-Difluorophenyl)sulphanyl]methylene}-3-ethoxycyclohex-2-en-1-ylidene)-4-methylaniline]
- mortality at 100 mg/m2 [1]: 80%
- pest or weed control at 500 g/ha [5]: 83%
- pest or weed control at 500 g/ha [2]: 100%
